For this assay, the target named is Recombinant human HSD17B13 (Homo sapiens (Human), UniProt Q7Z5P4). As to the kind of experiment: HSD17B13 rapid-fire mass spectrometry assay (RF/MS assay). The class given is biochemical. Conditions: inhibition of HSD17B13; LTB4 10 μM, NAD+ 0.5 mM, RT 3 h; IC50 ranges A-E. Put shortly: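 Product 12-oxo-LTB4 and substrate LTB4 quantified by RapidFire triple-quad MS in negative mode, giving percent conversion. Reaction: 80 nM recombinant hHSD17B13, 10 μM LTB4, 0.5 mM NAD+, compound up to 100 μM, pH 7.5, RT, 3 h. Variable-slope fit gave IC50; run in duplicate.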

The structures appear in SMILES notation. Where only a bound is given, the exact number is not on record here.

Chain of Recombinant human HSD17B13 (Q7Z5P4 20-300): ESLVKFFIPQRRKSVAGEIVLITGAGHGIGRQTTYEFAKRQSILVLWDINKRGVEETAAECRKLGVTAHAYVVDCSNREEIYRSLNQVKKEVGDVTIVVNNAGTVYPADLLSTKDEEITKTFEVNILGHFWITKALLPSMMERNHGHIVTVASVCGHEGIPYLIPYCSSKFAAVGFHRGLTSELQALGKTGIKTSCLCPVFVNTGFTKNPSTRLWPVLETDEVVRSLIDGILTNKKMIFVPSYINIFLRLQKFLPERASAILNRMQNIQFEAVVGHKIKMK

Turning to `COc1cc(C(=O)O)ccc1NS(=O)(=O)c1csc(-c2ccc(C3CCC(F)(F)CC3)cc2)n1` [Example 371], the IC50 lay in the range of 0.1 to 0.5 µM.

Turning to `COc1cc(C(=O)O)c(F)cc1NS(=O)(=O)c1csc(-c2ccc(C3CCC(C)(C)CC3)cc2)n1` [Example 372], the IC50 is < 0.1 µM.

Turning to `CCC[C@H]1CC[C@H](C2CC=C(c3nc(S(=O)(=O)Nc4ccc(C(=O)O)cc4OC)cs3)CC2)CC1` (stereo partly drawn) [Example 373], the 50% inhibitory concentration (IC50) is 0.1 to 0.5 µM. Then `COc1cc(C(=O)O)ccc1NS(=O)(=O)c1ccc(-c2ccc(C3CCCCC3)cc2)s1` [Example 374], with 0.1 to 0.5 µM; and `COc1cc(C(=O)O)ccc1NS(=O)(=O)c1coc(-c2ccccc2)n1` [Example 375], with < 0.1 µM; and `COc1cc(C(=O)O)ccc1NS(=O)(=O)N1Cc2nc(C3CCC(c4ccccc4)CC3)sc2C1` (stereo not drawn) [Example 376, 3-methoxy-4-((2-(4-phenylcyclohexyl)-5,6-dihydro-4H-pyrrolo[3,4-d]thiazole)-5-sulfonamido)benzoic acid], with < 0.1 µM. As to `CCC[C@H]1CC[C@H](C2CC=C(c3ccc4c(c3)CN(S(=O)(=O)Nc3ccc(C(=O)O)cc3OC)C4)CC2)CC1` (stereo partly drawn) [Example 377, 3-methoxy-4-((5-((1S,1′s,4′S)-4′-propyl-[1,1′-bi(cyclohexan)]-3-en-4-yl)isoindoline)-2-sulfonamido)benzoic acid], the IC50 fell in the range of 1 to 100 µM. For the compound `COc1cc(C(=O)O)ccc1NS(=O)(=O)c1ccc(-c2cnc(-c3ccc(C4CCCCC4)cc3)s2)cc1` [Example 378, 4-((4-(2-(4-cyclohexylphenyl)thiazol-5-yl)phenyl)sulfonamido)-3-methoxybenzoic acid], the IC50 was in the range of 1 to 100 µM. To `CCC[C@H]1CC[C@H](C2CC=C(c3nc(S(=O)(=O)Nc4ccc(C(=O)O)cc4OC)cs3)CC2)CC1` (stereo partly drawn) [Example 379] belongs 0.1 to 0.5 µM; to `COc1cc(C(=O)O)ccc1NS(=O)(=O)c1csc(-c2ccc(C3CCC(OC)CC3)cc2)n1` (stereo not drawn) [Example 380], 0.1 to 0.5 µM; to `CCC[C@H]1CC[C@H](C2CCC(c3nc(S(=O)(=O)Nc4ccc(C(=O)O)cc4OC)cs3)CC2)CC1` (stereo partly drawn) [Example 381], 0.1 to 0.5 µM. Consider `COc1cc(C(=O)O)ccc1NS(=O)(=O)c1csc(-c2ccc(-c3ccc4c(c3)OCCO4)cc2)n1` [Example 382], for which the half-inhibitory concentration (IC50) was < 0.1 µM. With `COc1cc(C(=O)O)ccc1NS(=O)(=O)c1csc(-c2ccc(-c3ccc(-c4ccc5c(c4)OCCO5)cc3)cc2)n1` [Example 383], the 50% inhibitory concentration (IC50) is < 0.1 µM. In the case of `COc1cc(C(=O)O)ccc1NS(=O)(=O)N1Cc2nc(-c3ccc4c(c3)OCCO4)sc2C1` [Example 384], the half-inhibitory concentration (IC50) lay in the range of 0.1 to 0.5 µM.

As to `COc1cc(C(=O)O)ccc1NS(=O)(=O)c1cnc(-c2ccc(C3CCCCC3)cc2)s1` [Example 385], the IC50 is < 0.1 µM. To `COc1cc(C(=O)O)ccc1NS(=O)(=O)N1Cc2nc(-c3ccc4c(c3)CCCC4)sc2C1` [Example 386] belongs 0.1 to 0.5 µM.

Regarding `O=C(O)c1ccc2cc(NS(=O)(=O)c3cnc(-c4ccc(F)cc4)s3)ccc2c1` [Example 387, 6-((2-(4-fluorophenyl)thiazole)-5-sulfonamido)-2-naphthoic acid], the half-inhibitory concentration (IC50) was 1 to 100 µM. To `O=C(O)c1ccc2sc(NS(=O)(=O)c3cnc(-c4ccc(F)cc4)s3)nc2c1` [Example 388, 2-((2-(4-fluorophenyl)thiazole)-5-sulfonamido)benzo[d]thiazole-5-carboxylic acid] belongs 1 to 100 µM.

Consider `COc1cc(-c2ccc(C(=O)O)cc2)ccc1NS(=O)(=O)c1cnc(-c2ccc(F)cc2)s1` [Example 389, 4′-((2-(4-fluorophenyl)thiazole)-5-sulfonamido)-3′-methoxy-[1,1′-biphenyl]-4-carboxylic acid], for which the 50% inhibitory concentration (IC50) lay within 1 to 100 µM. Then `COc1cc(-c2ccc(C(=O)O)cc2OC)ccc1NS(=O)(=O)c1cnc(-c2ccc(F)cc2)s1` [Example 390], with 1 to 100 µM; and `COc1cc(C(=O)O)ccc1NS(=O)(=O)c1csc(C#Cc2ccc(C(N)=O)c(OC(F)(F)F)c2)n1` [Example 391], with 0.1 to 0.5 µM. Turning to `CCOP(=O)(OCC)c1ccc(NS(=O)(=O)c2csc(C#Cc3cccc(OC(F)(F)F)c3)n2)c(OC)c1` [Example 392, diethyl (3-methoxy-4-((2-((3-(trifluoromethoxy)phenyl)ethynyl)thiazole)-4-sulfonamido)phenyl)phosphonate], the 50% inhibitory concentration (IC50) was in the range of 1 to 100 µM. As to `COc1cc(C(=O)O)ccc1NS(=O)(=O)c1csc(C#Cc2ccc(F)c(OC(F)(F)F)c2)n1` [Example 393, 4-((2-((4-fluoro-3-(trifluoromethoxy)phenyl)ethynyl)thiazole)-4-sulfonamido)-3-methoxybenzoic acid], the IC50 is < 0.1 µM. For the compound `COc1cc(C(=O)O)ccc1NS(=O)(=O)c1csc(C#Cc2ccc(C(=O)O)c(OC(F)(F)F)c2)n1` [Example 394], the IC50 was in the range of 1 to 100 µM. Then `COc1cc(C(=O)O)ccc1NS(=O)(=O)c1csc(C#Cc2ccc(OC)c(OC(F)(F)F)c2)n1` [Example 395], with < 0.1 µM; and `COc1cc(C(=O)O)ccc1NS(=O)(=O)c1csc(C#Cc2ccc(C#N)c(OC(F)(F)F)c2)n1` [Example 397], with < 0.1 µM. Take `COC(=O)c1ccc(C#Cc2nc(S(=O)(=O)Nc3ccc(C(=O)O)cc3OC)cs2)cc1OC(F)(F)F` [Example 398]: the 50% inhibitory concentration (IC50) is < 0.1 µM. Consider `COc1ccc(C#Cc2nc(S(=O)(=O)Nc3ccc(C(=O)O)cc3OC)cs2)c(C(C)C)c1` [Example 399, 4-((2-((2-isopropyl-4-methoxyphenyl)ethynyl)thiazole)-4-sulfonamido)-3-methoxybenzoic acid], for which the IC50 was < 0.1 µM. As for `CCOP(=O)(O)c1ccc(NS(=O)(=O)c2csc(C#Cc3cccc(OC(F)(F)F)c3)n2)c(OC)c1` [Example 400, ethyl hydrogen (3-methoxy-4-((2-((3-(trifluoromethoxy)phenyl)ethynyl)thiazole)-4-sulfonamido)phenyl)phosphonate], the IC50 is 1 to 100 µM. Turning to `COc1cc(CC(=O)O)ccc1NS(=O)(=O)c1csc(C#Cc2cccc(OC(F)(F)F)c2)n1` [Example 401, 2-(3-methoxy-4-((2-((3-(trifluoromethoxy)phenyl)ethynyl)thiazole)-4-sulfonamido)phenyl)acetic acid], the half-maximal inhibitory concentration (IC50) fell in the range of 1 to 100 µM. Turning to `COc1ccc(OC(F)(F)F)cc1C#Cc1nc(S(=O)(=O)Nc2ccc(C(=O)O)cc2OC)cs1` [Example 402], the IC50 is 0.1 to 0.5 µM. Then `COc1cc(C(=O)O)ccc1NS(=O)(=O)c1csc(-c2cccc3cnn(C)c23)n1` [Example 403, 3-methoxy-4-((2-(1-methyl-1H-indazol-7-yl)thiazole)-4-sulfonamido)benzoic acid], with 0.5 to 1 µM; and `COc1cc(C(=O)O)ccc1NS(=O)(=O)c1csc(-c2ccc(-c3ccc4ccccc4c3)cc2)n1` [Example 404], with < 0.1 µM; and `COc1cc(C(=O)O)ccc1NS(=O)(=O)c1csc(-c2ccc3cnccc3c2)n1` [Example 405], with 0.1 to 0.5 µM. To `C=C(COC)c1ccc(-c2nc(S(=O)(=O)Nc3ccc(C(=O)O)cc3OC)cs2)cc1` [Example 406, 3-methoxy-4-((2-(4-(3-methoxyprop-1-en-2-yl)phenyl)thiazole)-4-sulfonamido)benzoic acid] belongs 0.1 to 0.5 µM.

As to `COc1cc(C(=O)O)ccc1NS(=O)(=O)c1cccc(-c2ccc(F)cc2)n1` [Example 411, 4-((6-(4-fluorophenyl)pyridine)-2-sulfonamido)-3-methoxybenzoic acid], the IC50 lay within 0.5 to 1 µM.

As to `COc1cc(C(=O)O)ccc1NS(=O)(=O)c1cccc(-c2ccc(C3CCCCC3)cc2)n1` [Example 412], the IC50 lay within 0.1 to 0.5 µM. As for `COc1cc(C(=O)O)ccc1NS(=O)(=O)c1coc(-c2ccc(C)cc2)n1` [Example 413], the 50% inhibitory concentration (IC50) was < 0.1 µM. In the case of `COc1cc(C(=O)O)ccc1NS(=O)(=O)c1coc(-c2ccc(C(F)(F)F)cc2)n1` [Example 414], the IC50 was < 0.1 µM. Consider `COc1ccc(-c2nc(S(=O)(=O)Nc3ccc(C(=O)O)cc3OC)co2)cc1` [Example 415], for which the IC50 is < 0.1 µM. Turning to `COc1cc(C(=O)O)ccc1NS(=O)(=O)c1coc(-c2ccc(OC(F)(F)F)cc2)n1` [Example 416], the half-maximal inhibitory concentration (IC50) is < 0.1 µM. To `COc1cc(C(=O)O)ccc1NS(=O)(=O)c1coc(-c2ccc(C3CCCCC3)cc2)n1` [Example 419] belongs 0.1 to 0.5 µM. To `COc1cc(C(=O)O)ccc1NS(=O)(=O)c1coc(-c2ccc(C3CCC(C)(C)CC3)cc2)n1` [Example 420] belongs 0.1 to 0.5 µM; to `COc1cc(C(=O)O)ccc1NS(=O)(=O)c1csc(-c2ccc(C3CCCC(OC)C3)cc2)n1` (stereo not drawn) [Example 426, 3-methoxy-4-((2-(4-(3-methoxycyclohexyl)phenyl)thiazole)-4-sulfonamido)benzoic acid], 0.1 to 0.5 µM. For `COc1cc(C(=O)O)ccc1NS(=O)(=O)c1cnc(-c2ccc(-c3ccc4c(c3)CCCC4)cc2)s1` [Example 427], the IC50 fell in the range of 0.1 to 0.5 µM. Consider `COc1cc(C(=O)O)ccc1NS(=O)(=O)c1ccc(-c2ccc(C3CCC(C)(C)CC3)cc2)s1` [Example 428, 4-((5-(4-(4,4-dimethylcyclohexyl)phenyl)thiophene)-2-sulfonamido)-3-methoxybenzoic acid], for which the concentration for half-maximal inhibition (IC50) is 0.1 to 0.5 µM. To `COc1cc(C(=O)O)ccc1NS(=O)(=O)c1ccc(-c2ccc(C3=CCC(C)(C)CC3)cc2)s1` [Example 429, 4-((5-(4′,4′-dimethyl-2′,3′,4′,5′-tetrahydro-[1,1′-biphenyl]-4-yl)thiophene)-2-sulfonamido)-3-methoxybenzoic acid] belongs 0.1 to 0.5 µM; to `COc1cc(C(=O)O)ccc1NS(=O)(=O)c1ccc(-c2ccc(C3(O)CCC(C)(C)CC3)cc2)s1` [Example 430, 4-((5-(4-(1-hydroxy-4,4-dimethylcyclohexyl)phenyl)thiophene)-2-sulfonamido)-3-methoxybenzoic acid], 0.1 to 0.5 µM.

In general, IC50 refers to the concentration that inhibits the measured activity by half.

Values taken from patent US12384753B2, “17-beta-hydroxysteroid dehydrogenase type 13 inhibitors and methods of use thereof” (Enanta Pharmaceuticals, Inc., priority 2021, dated 2025).
